US20110039770A1, “INHIBITORS OF PROTEIN KINASE C ISOFORMS AND USES THEREOF” (PHARMAGAP INC., priority 2005, published 2011)
Read-outs that look alike come from different tables or passages of the source. Where a SMILES comes first, the peptide text is derived from it. The star is where a group is joined. PNA(A) = NCCN(CC(=O)*)C(=O)Cn1cnc2c(N)ncnc21

Legend:
PKC alpha = PKC alpha (Homo sapiens, UniProt P17252); assay: PKC isoform protein levels in cancer cell lines after TIM 10 (Western blot); assay type: cell-based; set-up: endogenous in cells; host or cells: MDA MB-231, T24, SKOV-3, MCF-7, Capan-2, NCI-H661, Calu-6, Calu-3; details: 5 mM by pinocytic influx, 24 hrs
Experimental: (§1) The effect of compound TIM 10 on the levels of protein for various PKC isoforms was assessed as generally described below in the following human cancer cell lines: MDA MB-231 breast adenocarcinoma cells (ATCC HTB-26); T24 bladder transitional cell carcinoma (ATCC HTB-4); SKOV-3 ovary adenocarcinoma (ATCC HTB-77); MCF-7 breast adenocarcinoma (ATCC HTB-22); Capan-2 pancreatic adenocarcinoma (ATCC HTB-80); NCI-H661 NSCL large cells (ATCC HTB-183); Calu-6 probable lung anaplastic carcinoma (ATCC HTB-56) and Calu-3 lung adenocarcinoma (ATCC HTB-55).
(§2) Cells representative of the different cancer types were cultured according to ATCC instructions. At subconfluence, the cells were trypsinized and compound 10 (5 mM) was incorporated into the cells by pinocytic influx endocytosis according to the manufacturer's instructions (Molecular Probe). Matching controls were treated accordingly except that vehicle was incorporated instead of compound 10. Following pinocytic influx, the cells were seeded and allowed to grow in fresh medium for 24 hrs. The cell cultures were further extracted using RIPA lysis buffer according to standard protocol. The protein content of each lysate was measured using Bradford protein estimation procedure (BioRad) and normalized. Following addition of sample buffer, the proteins from 15 μl of each extract were separated by electrophoresis, electro-transferred to nitrocellulose membranes and the various isoforms of PKC were detected using appropriate antibodies (Santa Cruz Biotechnology, Inc., CA). The relative intensity of bands of the expected molecular weight was estimated after scanning and the % decrease in the band intensity relative to control was calculated.

[1] = test system: IMR-32 human neuroblastoma cells; details: IMR-32
Experimental: The ability of compounds PKI 1, PKI 2 and PKI 3 to inhibit cancer cell proliferation was tested in vitro using the human neuroblastoma cell line IMR-32. Monolayer cell cultures were trypsinized and the test compound was added at the doses indicated in Table 24 and internalized by pinocytic endocytosis using Influx TM pinocytic cell-loading reagent, a kit from Molecular Probes (Eugene, Oreg.) following the manufacturer's recommendations. The indicated doses refer to the concentration in the loading medium, which was used on 1×10^6 cells in a 10 μl volume, i.e. contained 10 μg to 100 ug of test compound that provides […] per cell. […] The cells were treated on day 0 of the experiment. The cells loaded with test compound were cultured in 96 well plates (5,000 cells in 100 μl per well), and the proliferation was monitored over 3 consecutive days. The increase in cell population was quantified using a Hoechst reagent-based assay (modified from Rao and Otto, 1992, Analytical Biochem. 207:186-192) that measures the total DNA of the population. Fluorescence was measured using a Millipore CytoFluor 2350 plate reader (excitation at 360 nm and emission at 460 nm). The measurements were obtained as relative fluorescence intensity, a value that is directly correlated to the total number of cells. Data are expressed as a percentage of matching controls that were supplemented with culture medium alone.
The ability of the compound TIM 9 to inhibit cancer cell proliferation was tested in vitro using the human neuroblastoma cell line IMR-32 and following the general protocol described in Example 14.
The ability of the compound TIM 11 to inhibit IMR-32 cancer cell proliferation was tested in vitro following the general protocol described in Example 14.
The ability of the compound TIM 10 to inhibit cancer cell proliferation was tested in vitro using the human neuroblastoma IMR-32 cell line and following the general protocol described in Example 14.

PKC beta 1 = PKC beta 1 (Homo sapiens, UniProt P05771); assay: PKC isoform protein levels in cancer cell lines after TIM 10 (Western blot); assay type: cell-based; set-up: endogenous in cells; details: 5 mM by pinocytic influx, 24 hrs
Chain of PKC beta 1 (P05771 whole entry, canonical isoform): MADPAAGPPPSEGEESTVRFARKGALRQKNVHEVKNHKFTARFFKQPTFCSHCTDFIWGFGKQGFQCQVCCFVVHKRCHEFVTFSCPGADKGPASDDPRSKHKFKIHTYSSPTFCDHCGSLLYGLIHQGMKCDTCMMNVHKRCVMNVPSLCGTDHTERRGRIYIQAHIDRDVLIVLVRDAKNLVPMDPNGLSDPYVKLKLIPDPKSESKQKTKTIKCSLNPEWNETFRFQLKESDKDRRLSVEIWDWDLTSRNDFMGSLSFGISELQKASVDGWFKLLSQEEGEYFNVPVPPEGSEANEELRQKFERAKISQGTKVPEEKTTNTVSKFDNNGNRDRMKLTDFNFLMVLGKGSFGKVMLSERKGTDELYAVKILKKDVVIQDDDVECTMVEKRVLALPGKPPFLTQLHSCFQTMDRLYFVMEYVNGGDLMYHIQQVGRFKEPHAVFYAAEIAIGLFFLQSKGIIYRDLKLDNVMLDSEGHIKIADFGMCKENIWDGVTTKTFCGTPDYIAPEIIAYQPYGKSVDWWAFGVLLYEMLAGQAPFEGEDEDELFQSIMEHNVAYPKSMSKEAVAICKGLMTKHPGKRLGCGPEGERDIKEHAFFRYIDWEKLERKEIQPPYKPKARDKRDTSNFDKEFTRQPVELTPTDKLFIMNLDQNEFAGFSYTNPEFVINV
Experimental: as §1, §2

PKC epsilon = target: T1, PKC epsilon (Homo sapiens, UniProt Q02156); assay: as above; assay type: cell-based; set-up: endogenous in cells; details: 5 mM by pinocytic influx, 24 hrs
T1 sequence (Q02156 1-737): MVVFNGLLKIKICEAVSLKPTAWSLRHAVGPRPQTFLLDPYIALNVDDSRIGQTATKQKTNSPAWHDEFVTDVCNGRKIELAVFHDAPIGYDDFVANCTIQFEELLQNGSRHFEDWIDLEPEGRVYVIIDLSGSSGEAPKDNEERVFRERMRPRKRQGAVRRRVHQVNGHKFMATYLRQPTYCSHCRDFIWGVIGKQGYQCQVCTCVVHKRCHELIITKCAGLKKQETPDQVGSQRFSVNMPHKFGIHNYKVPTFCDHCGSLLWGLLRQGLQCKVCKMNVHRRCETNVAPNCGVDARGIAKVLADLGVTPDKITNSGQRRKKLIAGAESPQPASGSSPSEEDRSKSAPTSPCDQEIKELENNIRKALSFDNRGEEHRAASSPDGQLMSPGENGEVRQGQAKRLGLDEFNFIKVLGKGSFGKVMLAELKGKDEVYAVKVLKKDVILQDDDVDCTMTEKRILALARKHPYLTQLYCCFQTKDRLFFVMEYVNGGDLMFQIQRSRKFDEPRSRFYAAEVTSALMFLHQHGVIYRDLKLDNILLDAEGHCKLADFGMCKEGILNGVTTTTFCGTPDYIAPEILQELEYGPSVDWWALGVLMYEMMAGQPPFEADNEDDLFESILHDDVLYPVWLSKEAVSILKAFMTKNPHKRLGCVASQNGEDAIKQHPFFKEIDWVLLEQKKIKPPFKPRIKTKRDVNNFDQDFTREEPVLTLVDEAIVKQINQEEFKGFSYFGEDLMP
Experimental: as §1, §2

**Q.** How did the “% decrease PKC-α band intensity relative to control” value (PKC alpha; Calu-3) turn out when `CC[C@H](C)[C@H](NC(=O)[C@H](CO)NC(=O)[C@@H](NC(=O)CNC(=O)[C@@H](NC(=O)[C@H](CC(C)C)NC(=O)[C@H](CC(N)=O)NC(=O)[C@H](CCC(N)=O)NC(=O)[C@H](C)NC(=O)[C@H](CC(=O)O)NC(=O)[C@H](CCCCN)NC(=O)CNC(=O)CNC(=O)CNC(=O)CNC(=O)CNC(=O)CNC(=O)CNC(=O)[C@H](CC(C)C)NC(=O)[C@H](CCCNC(=N)N)NC(=O)[C@H](Cc1ccccc1)NC(=O)[C@H](CCCCNC(=O)CN(CCN)C(=O)Cn1cnc2c(N)ncnc21)NC(=O)[C@H](CCCNC(=N)N)NC(=O)[C@H](CCCNC(=N)N)NC(=O)[C@H](Cc1ccccc1)NC(C)=O)[C@@H](C)CC)[C@@H](C)CC)C(N)=O` [TIM 10] (Ac-FRRK(PNA(A))FRLGGGGGGGKDAQNLIGISI-NH2) was run?
**A.** 21.8%

**Q.** What about the “% decrease PKC-α band intensity relative to control” value (PKC alpha; Calu-6) of the same molecule?
**A.** 57.8%

**Q.** What about the “% decrease PKC-α band intensity relative to control” value (PKC alpha; Capan-2) of the same molecule?
**A.** 53.4%

**Q.** And the “% decrease PKC-α band intensity relative to control” value (PKC alpha; H661)?
**A.** 28.1%

**Q.** And the “% decrease PKC-α band intensity relative to control” value (PKC alpha; MCF-7)?
**A.** 12.0%

**Q.** And the “% decrease PKC-α band intensity relative to control” value (PKC alpha; MDA-MB231)?
**A.** 36.6%

**Q.** And the “% decrease PKC-α band intensity relative to control” value (PKC alpha; SK-OV-3)?
**A.** 63.4%

**Q.** What about the “% decrease PKC-α band intensity relative to control” value (PKC alpha; T24) of the same molecule?
**A.** 42.5%

**Q.** And the “% Cell Survival” value ([1]; 100 μM, 24 Hours)?
**A.** 93%

**Q.** What about the “% Cell Survival” value ([1]; 100 μM, 48 Hours) of the same molecule?
**A.** 80%

**Q.** And the “% Cell Survival” value ([1]; 100 μM, 72 Hours)?
**A.** 77%

**Q.** What about the “% Cell Survival” value ([1]; 500 μM, 24 Hours) of the same molecule?
**A.** 91%

**Q.** And the “% Cell Survival” value ([1]; 500 μM, 48 Hours)?
**A.** 76%

**Q.** And the “% Cell Survival” value ([1]; 500 μM, 72 Hours)?
**A.** 73%

**Q.** And the “% Cell Survival” value ([1]; 1 mM, 24 Hours)?
**A.** 90%

**Q.** What about the “% Cell Survival” value ([1]; 1 mM, 48 Hours) of the same molecule?
**A.** 77%

**Q.** And the “% Cell Survival” value ([1]; 1 mM, 72 Hours)?
**A.** 70%

**Q.** What about the “% Cell Survival” value ([1]; 5 mM, 24 Hours) of the same molecule?
**A.** 81%

**Q.** And the “% Cell Survival” value ([1]; 5 mM, 48 Hours)?
**A.** 76%

**Q.** What about the “% Cell Survival” value ([1]; 5 mM, 72 Hours) of the same molecule?
**A.** 66%

**Q.** What about the “% decrease PKC-βI band intensity relative to control” value (PKC beta 1; Capan-2) of the same molecule?
**A.** 17.5%

**Q.** And the “% decrease PKC-βI band intensity relative to control” value (PKC beta 1; H661)?
**A.** 3.0%

**Q.** What about the “% decrease PKC-βI band intensity relative to control” value (PKC beta 1; MCF-7) of the same molecule?
**A.** 0.0%

**Q.** What about the “% decrease PKC-βI band intensity relative to control” value (PKC beta 1; MDA-MB231) of the same molecule?
**A.** 0.0%

**Q.** And the “% decrease PKC-ε band intensity relative to control” value (PKC epsilon; Capan-2)?
**A.** 0.0%

**Q.** What about the “% decrease PKC-ε band intensity relative to control” value (PKC epsilon; MCF-7) of the same molecule?
**A.** 0.0%

**Q.** What about the “% decrease PKC-ε band intensity relative to control” value (PKC epsilon; MDA-MB231) of the same molecule?
**A.** 0.0%
